Test results published in patent publication US7291629B2, “Neurotrophin antagonist compositions” (Painceptor Pharma Corporation, priority 1996, dated 2007).
Like-named read-outs stand apart in the source and are kept apart here.

Legend:
[1] = system: L5/L6 Nerve Ligated and Sham-Operated Rats; settings: for A50(95% C.L.) Hot Plate- Ligated: L5/L6 nerve ligated rats; for A50(95% C.L.) Hot Plate- Sham: sham-operated rats
[2] = system: L5/L6 Nerve Ligated rats; test: Tactile allodynia, nerve ligation injury model (von Frey paw withdrawal threshold)
[3] = system: chick embryo dorsal root ganglia (DRG) neurons; test: Inhibition of neurite outgrowth (NGF-stimulated DRG neurons); format: cell-based; settings: 0.25 ng/mL NGF, NGF Control 1.000
Procedure: Eight-day chick embryo dorsal root ganglia (DRG) were freed of meninges and removed aseptically. The DRG were kept at 4° C. at all times. Ganglia from six embryos (40-50 per embryo) were washed in Ca^2+-and Mg^2+-free Gey's balanced salt solution (Gibco) and exposed to 0.01% trypsin (Worthington) in the same solution for 10 min at 37° C. A half-volume of phosphate-buffered Gey's balanced salt solution was added for a further 5 min at 37° C. and the reaction was then terminated with one-third volume of Ham's F12 medium (Gibco) containing 5% fetal calf serum (FCS, Gibco). The ganglia were then triturated using a 5 mL narrow-tip pipette to a single cell suspension. Following filtration through […] nylon mesh (Small Parts Inc., Miami, Fla.) in a Millipore chamber to remove clumps, the cell suspension was washed through a 500-ml FCS undercut (700×g for 5 min at 4° C.) and resuspended in 4 mL of Ham's F12 medium plus 5% FCS. The cell suspension was then preplated on a 100-mm Flacon culture dish and incubated for 45-60 min at 37° C. in a 5% CO2 humidified atmosphere. Cells enriched in neurons were decanted for the bioassay, since non-neuronal cells of DRG preferentially stick to the culture substrate.
The inside wells of 96-well Falcon microculture plates were coated with polylysine (0.1 mg/mL) (Sigma) for 4 h at 37° C. (the outside wells were filled with distilled water to provide humidity) and, following a rinse with tissue culture media, […] of neuron-rich cell suspension was added to each well at 10^5 cells/mL. Ninety (90) […] of NGF solution (prepared in tissue culture media) was then added to each well to a final concentration of 0.25 ng/mL NGF per well. […]
The bioassays were read using a Leitz Diavert microscope with phase optics. […] At least 100 neurons per well were counted, and the assay was scored as the ratio of cells bearing neurites greater than one cell diameter to total viable (phase bright) cells.

[4] = system: nerve-ligated rats; test: Nerve-ligated injury model of neuropathic pain, i.c.v. administration (tactile allodynia, thermal hyperalgesia, acute nociception); format: in vivo, rat; settings: given i.c.v.
[5] = system: L5/L6 Nerve Ligated and Sham-Operated Rats; settings: for A50(95% C.L.) Tail Flick- Ligated: L5/L6 nerve ligated rats; for A50(95% C.L.) Tail Flick- Sham: sham-operated rats

For O=C1c2cccc3cc([N+](=O)[O-])cc(c23)C(=O)N1CCO [Compound A], the “A50(95% C.L.) Hot Plate- Ligated” value ([1]; i.p.) was 18.6 mg/kg, the “A50(95% C.L.) Hot Plate- Sham” value ([1]; i.p.) was 34.9 mg/kg and the “A50(95% C.L.) Hot Plate- Ligated” value ([1]; i.th) was 14.8 µg. For the same compound, the “A50(95% C.L.) Hot Plate- Sham” value ([1]; i.th) was 48.1 µg, the “A50(95% C.L.) Allodynia- Ligated” value ([2]; i.p.) was 38 mg/kg and the “A50(95% C.L.) Allodynia- Ligated” value ([2]; i.th) was 34.6 µg. The “Ratio (cells bearing neurites greater than one cell diameter to total viable cells)” value (from here on “Ratio”) ([3]; 5 μM compound) was 1.1, the “Ratio” value ([3]; 50 μM compound) was 0.16 and the “Ratio” value ([3]; 100 μM compound) was 0.016. The “Activity in nerve-ligated injury model of neuropathic pain” value [4] was “not active”, the “A50(95% C.L.) Tail Flick- Ligated” value ([5]; i.p.) was 27.8 mg/kg and the “A50(95% C.L.) Tail Flick- Sham” value ([5]; i.p.) was 25.7 mg/kg. The “A50(95% C.L.) Tail Flick- Ligated” value ([5]; i.th) was 78 µg and the “A50(95% C.L.) Tail Flick- Sham” value ([5]; i.th) was 34 µg.
